Results reported in patent publication US20020169183A1, “Acridines as stimulators for Fas-mediated apoptosis” (priority 2001, published 2002).

Columns and labels:
[1] = tested on: Hepatocytes; test: Fas-dependent apoptosis by FACS analysis (DNA fragmentation, propidium iodide; annexin V); format: cell-based; conditions: at 10 μM
Method: Assays for Fas-dependent apoptosis are known in the art. See, for example, Ruiz-Ruiz et al, Cell Death Diff. 6:271 (1999); and Muller et al., […]. 188:2033 (1998).
Apoptosis is identified by detection of the DNA fragmentation pattern characteristic of apoptotic cell death. In this Example, apoptosis is detected and measured by FACS® analysis carried out in a FACScan® flow cytometer (Becton Dickinson) using CellQuest software. Quantification of DNA fragmentation is performed by FACS® analysis of propidium iodide-stained nuclei as described in Nicolletti et al., J. Immunol. Methods 139:271-279 (1991). Hepatocytes floating in the culture medium are collected by centrifugation at 200× g. Adherent hepatocytes are harvested by incubation with 1% trypsin for 1 min. The cells are washed in phosphate-buffered saline (PBS), suspended in hypotonic lysis buffer (0.1% sodium citrate, 0.1% Triton X, and […] propidium iodide) (Sigma) and incubated at 4° C. for 6 hours. Cells are then analyzed for DNA content by flow cytometry.
Early apoptotic changes are identified using annexin V-Fluos (Boehringer Mannheim) which binds to phosphatidylserine molecules (PS) exposed on apoptotic, but not normal, cell membranes (PS is normally restricted to the inner leaflet of the cell membrane bilayer). […] Cells are incubated for 10-15 min and analyzed on a flow cytometer using CellQuest software. […]

[2] = tested on: Synoviocytes; test: Stimulation of Fas-mediated apoptosis: XTT cell viability with anti-human Fas antibody h-HFE7A, stimulation index; format: cell-based; conditions: 10 μM compound with h-HFE7A 1000 ng/mL, synoviocytes from rheumatoid arthritis patients, 16 hours
Description: Anti-human Fas antibody h-HFE7A, humanized antibody was obtained from Sankyo Co., Ltd. This antibody induces apoptosis when cross-linked with secondary antibody in vitro.
Samples of human synovium were obtained from rheumatoid arthritis patients at the time of total knee replacement surgery or synoviectomy. Synovial tissue was minced into small pieces and was digested with collagenase and cultured in Ham's F12 medium supplemented with 10% fetal bovine serum (F10F) in a humidified 5% CO2 atmosphere at 37° C. Adherent cells were considered as synoviocytes and were cultivated in F10F.
Cell viability was determined with the XTT method described in Cancer Res. 48:4827 (1988). Ninety-six well flat plates were precoated with anti-human IgG. h-HFE7A (1000 ng/mL) and/or 10 μM of a compound of this invention were added and incubated for 2 hours. Synoviocytes were seeded (10,000/well) and incubated for 16 hours. Background wells received culture medium only. XTT (2,3-Bis[2-methoxy-4-nitro-sulfophenyl]-2H-tetrazolium-5-carboxanilide), final concentration 200 μg/mL, and phenazine methosulfate, final concentration 5 μM, were added to each well, and further incubated for 4 hours. The absorbance at 450 nm was measured and cell viability was determined as follows: [formula]
Enhancement of Fas-mediated apoptosis by compounds of this invention was determined by the stimulation index (SI): [formula] […]

With `CCN(CC)CCCNc1c2ccccc2nc2ccccc12` [Compound 3, 9-[(3-diethylaminopropyl)amino]acridine] as the compound, how does the “stimulation of Fas-dependent apoptosis” value [1] read?
The value was “shows stimulation”.

What about the “Enhancement of Fas-mediated apoptosis, stimulation index (SI)” value [2] of the same compound?
The value was “positive (An SI over 2.0 was considered positive)”.
